We go through seven compounds from ChEMBL document CHEMBL1123357, “Chemotherapeutic approaches to the treatment of the acquired immune deficiency syndrome (AIDS)” (1986).

In brackets after ≈: the same amount, converted by molar mass.

Assay [1] has as its system ATH-8 cell line. The assay is described as follows: Selectivity index expressed as ratio of compound concentration required to reduce the growth of normal uninfected ATH8 cells by 50% to the compound concentration (MIC). In kind it is functional, Homo sapiens.
Assay [2] deals with ATH-8 cell line. In words: Minimum inhibitory concentration of the compound, achieving a complete protection of ATH8 cells against the cytopathic effect of HTLV-III / LAV […]. In kind it is functional. The settings on record: Homo sapiens.

In the case of `Cc1cn([C@H]2C[C@H](N=[N+]=[N-])[C@@H](CO)O2)c(=O)[nH]c1=O` [ZIDOVUDINE], the SI with ATH-8 cell line [1] is over 50. The same compound returned an MIC in the assay with ATH-8 cell line [2] of 1 µM (≈ 0.267 µg/mL).

On to `O=C(O)P(=O)(O)O` [FOSCARNET], for which the SI in the assay on ATH-8 cell line [1] was over 1. Besides, in the assay with ATH-8 cell line [2], the MIC was 350 µM (≈ 44.1 µg/mL).

Take `Cc1ccc(C(=O)Nc2ccc(S(=O)(=O)O)c3cc(S(=O)(=O)O)cc(S(=O)(=O)O)c23)cc1NC(=O)c1cccc(NC(=O)Nc2cccc(C(=O)Nc3cc(C(=O)Nc4ccc(S(=O)(=O)O)c5cc(S(=O)(=O)O)cc(S(=O)(=O)O)c45)ccc3C)c2)c1` [SURAMIN]: the SI in the assay with ATH-8 cell line [1] is given as 5. The same compound returned an MIC in the assay with ATH-8 cell line [2] of 35 µM (≈ 45.4 µg/mL).

As for `Nc1ccn([C@H]2CC[C@@H](CO)O2)c(=O)n1` [ZALCITABINE], the SI with ATH-8 cell line [1] is reported as 50. For the same compound, the MIC in the assay on ATH-8 cell line [2] came to 0.5 µM (≈ 0.106 µg/mL).

Turning to `Cc1cc(-c2ccc(/N=N/c3ccc4c(S(=O)(=O)[O-])cc(S(=O)(=O)[O-])c(N)c4c3O)c(C)c2)ccc1/N=N/c1ccc2c(S(=O)(=O)[O-])cc(S(=O)(=O)[O-])c(N)c2c1O.[Na+].[Na+].[Na+].[Na+]` [EVANS BLUE], the SI in the assay with ATH-8 cell line [1] is recorded as over 4. The MIC with ATH-8 cell line [2] stood at 26 µM.

`O=C(O)C1=CC(=C(c2ccc(O)c(C(=O)O)c2)c2ccc(O)c(C(=O)O)c2)C=CC1=O` [AURINTRICARBOXYLIC ACID]: in the assay on ATH-8 cell line [1], the SI is over 2.5. In addition, the MIC in the assay with ATH-8 cell line [2] was determined as 47 µM (≈ 19.9 µg/mL).

As for `NC(=O)c1ncn([C@@H]2O[C@H](CO)[C@@H](O)[C@H]2O)n1` [RIBAVIRIN], the SI with ATH-8 cell line [1] is listed as under 0.3. Also, the MIC against ATH-8 cell line [2] was over 400 µM.
